Consider eight molecules from ChEMBL document CHEMBL4229448 (Bioorg Med Chem Lett, 2018).

The target of series [1] is T1, Cholinesterase (Equus caballus, UniProt P81908). The series can be described thus: Inhibition of horse serum BuChE using acetylthiocholine as substrate by UV-visible spectrophotometric Ellman's method.
A short description of series [2]: Effective permeability of the compound at 100 ug/ml after 16 hrs by PAMPA.
The nature of series [3]: Half life in rat liver microsomes. The series is classed as ADME, microsome.
A short description of series [4]: Half life in pH 6.5 fasted state simulated intestinal fluid. The series is classed as ADME.
Series [5] addresses T1, Cholinesterase.
Description: Inhibition of horse serum BuChE using acetylthiocholine as substrate after 60 mins by FRET assay
Series [6] can be described thus: Metabolic stability in human plasma assessed as compound remaining measured after 120 mins. It is filed as ADME, cell-free. The settings on record: read-out: Stability.
For series [7], the system named is SH-SY5Y. The series can be described thus: Cytotoxicity against human SH-SY5Y cells assessed as decrease in cell viability after 48 hrs by MTT assay. It is filed as cell-based.
The target in series [8] is T2, Acetylcholinesterase (Homo sapiens, UniProt P22303). The series can be described thus: Inhibition of human recombinant AChE using acetylthiocholine as substrate by UV-visible spectrophotometric Ellman's method.
T2 sequence (P22303 whole entry): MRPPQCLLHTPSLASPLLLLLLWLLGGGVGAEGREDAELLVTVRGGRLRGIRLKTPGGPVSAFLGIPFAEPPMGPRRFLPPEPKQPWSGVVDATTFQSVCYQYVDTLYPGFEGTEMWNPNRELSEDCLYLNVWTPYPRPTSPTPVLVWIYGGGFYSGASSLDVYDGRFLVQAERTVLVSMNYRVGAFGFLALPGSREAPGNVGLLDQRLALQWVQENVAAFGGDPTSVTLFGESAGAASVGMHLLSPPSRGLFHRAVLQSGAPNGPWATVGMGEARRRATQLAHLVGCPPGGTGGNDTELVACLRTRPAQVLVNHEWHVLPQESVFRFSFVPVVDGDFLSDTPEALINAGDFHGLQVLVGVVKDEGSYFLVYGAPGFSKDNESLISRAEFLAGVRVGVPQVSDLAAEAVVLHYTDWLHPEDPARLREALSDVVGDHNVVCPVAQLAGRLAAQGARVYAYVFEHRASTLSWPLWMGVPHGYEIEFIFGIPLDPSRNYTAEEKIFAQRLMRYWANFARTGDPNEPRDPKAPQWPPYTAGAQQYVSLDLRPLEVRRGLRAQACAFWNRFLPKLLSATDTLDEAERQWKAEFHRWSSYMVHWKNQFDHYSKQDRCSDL
Series [9] concerns the target T2, Acetylcholinesterase. Briefly: Inhibition of human recombinant AChE at 0.05 uM using acetylthiocholine as substrate by UV-visible spectrophotometric Ellman's method.
In series [10] the target is Cholinesterase (Equus caballus) (UniProt P81908). The series can be described thus: Inhibition of horse serum BuChE at 0.1 uM using acetylthiocholine as substrate by UV-visible spectrophotometric Ellman's method.
Cholinesterase (Equus caballus), sequence (P81908 whole entry): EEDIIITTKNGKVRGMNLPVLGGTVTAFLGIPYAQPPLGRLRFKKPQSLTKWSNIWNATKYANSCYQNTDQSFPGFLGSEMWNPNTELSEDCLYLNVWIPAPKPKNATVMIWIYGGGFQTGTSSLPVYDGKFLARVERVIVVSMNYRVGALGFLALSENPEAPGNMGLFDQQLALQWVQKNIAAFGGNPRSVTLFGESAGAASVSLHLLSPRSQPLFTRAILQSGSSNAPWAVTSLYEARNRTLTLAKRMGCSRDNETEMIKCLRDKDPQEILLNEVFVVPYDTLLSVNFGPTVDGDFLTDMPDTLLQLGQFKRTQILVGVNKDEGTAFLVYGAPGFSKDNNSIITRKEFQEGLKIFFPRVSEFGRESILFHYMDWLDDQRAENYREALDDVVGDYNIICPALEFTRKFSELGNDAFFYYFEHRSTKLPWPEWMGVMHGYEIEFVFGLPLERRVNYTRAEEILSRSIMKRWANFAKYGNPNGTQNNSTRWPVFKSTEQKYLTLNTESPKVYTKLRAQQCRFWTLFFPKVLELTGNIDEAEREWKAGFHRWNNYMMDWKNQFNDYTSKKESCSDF

Calls of active or inactive are those of the source. No cut-off for these calls is given here.

T1 sequence (P81908 whole entry): as above

On to `C[C@@H](NC(=O)c1cc(C(=O)N[C@@H](Cc2ccccc2)[C@H](O)CNC2CC2)cc(N(C)S(C)(=O)=O)c1)c1ccccc1`, for which, in series [1], the IC50 is 0.0146 µM.
In series [2], `COc1ccc2c(c1)C/C(=C/c1ccccc1-c1ccc3ccccc3c1)C2=O` returned a Papp at 16 h, 100 ug/ml of 28.5 ×10⁻⁶ cm/s. In addition, the half-life in series [3] is 4.65 h; in series [4], 10.2 h. Besides, the IC50 in series [1] is 0.101 µM; in series [5], 3.97 µM; in series [7], above 50 µM; in series [8], 0.0324 µM. Also, the remaining at 2 h in [6] was found to be 99.2%. The inhibition result in series [9] and in series [10] was “Active” throughout.
`COc1ccc2c(c1)C/C(=C/c1ccccc1-c1ccc3nc(N)ccc3c1)C2=O` returned a Papp at 16 h, 100 ug/ml in series [2] of 24.3 ×10⁻⁶ cm/s. Also, the half-life is 3.78 h in [3] and 9.63 h in series [4]. Also, the IC50 in [1] was 0.0131 µM; in [5] it was 1.78 µM; in series [7], above 50 µM; in series [8], 0.0147 µM. The remaining at 2 h in series [6] came out at 96.1%. Moreover, the inhibition entry in [9] and in [10] was “Active” each time.
Regarding `CC[C@H]1OC(=O)[C@H](C)[C@@H](O[C@H]2C[C@@](C)(OC)[C@@H](O)[C@H](C)O2)[C@H](C)[C@@H](O[C@@H]2O[C@H](C)C[C@H](N(C)C)[C@H]2O)[C@](C)(O)C[C@@H](C)C(=O)[C@H](C)[C@@H](O)[C@]1(C)O` [ERYTHROMYCIN], the half-life in [4] is 8.25 h.
Regarding `COc1ccc2c(c1)C/C(=C/C1CCN(Cc3ccccc3)CC1)C2=O`, the IC50 was 0.341 µM in [1] and 0.0441 µM in [8]. Moreover, the inhibition entry in [10] is “Active”.
Turning to `COc1ccc2c(c1)C/C(=C/c1ccccc1-c1ccccc1)C2=O`, the Papp at 16 h, 100 ug/ml in [2] was 26.6 ×10⁻⁶ cm/s. The results for the half-life in series [3] and in series [4] were 4.05 h and 9.85 h, respectively. For the same molecule, the IC50 in series [1] is 0.125 µM; in [5], 3.31 µM; in series [7], above 50 µM; in series [8], 0.0298 µM. For the same molecule, the remaining at 2 h in [6] was found to be 98.6%. The inhibition result in series [9] and in [10] was “Active” each time.
With `COc1ccc(-c2ccccc2/C=C2/Cc3cc(OC)ccc3C2=O)cc1`, in series [2], the Papp at 16 h, 100 ug/ml was determined as 26.2 ×10⁻⁶ cm/s. Further, the half-life in series [3] is 3.58 h; in [4], 8.57 h. For the same molecule, the IC50 was 0.0994 µM in [1], 2.15 µM in series [5], above 50 µM in [7] and 0.0212 µM in series [8]. In series [6], the remaining at 2 h stood at 97.5%. Further, the inhibition entry in series [9] and in series [10] was “Active” in each case.
On to `CC(C)[N+](C)(CCOC(=O)C1c2ccccc2Oc2ccccc21)C(C)C` [PROPANTHELINE], for which the remaining at 2 h in [6] was 2.83%.
